From patent publication US20070043079A1, “Heterocyclic compound containing nitrogen atom and use thereof” (priority 2003, published 2007)
Where a name gives a salt, the structure may show the parent alone.

Molecular target: T1, human CCR5 (Homo sapiens, UniProt P51681)
T1 construct: expressed in transfected cells
Assay: Inhibition test on the binding of RANTES to CCR5 (RANTES-induced transient increase of Ca ion) in CCR5/CHO cells
Type: cell-based
Procedure: The whole procedures were carried out by preparing gene high expressing cells under basic genetic engineering methods by utilizing conventional methods. Also, as to the methods for the measurement in the present invention, improvement of measurement accuracy and/or modification of measurement sensitivity were adopted in order to evaluate the compound of the present invention. Detailed methods for the experiment are illustrated below.
(1) Isolation of Human CCR5 Genes
Human placental cDNA was prepared using Marathon cDNA amplification kit (Clontech). […]
Thus established human CCR5 stable over-expressing CHO cells (CCR5/CHO cells) were suspended in Ham's F-12 medium containing FBS (10%) and dispensed in […] portions into a 96 well plate. […] Transient increase in the intracellular Ca^2+ concentration induced by the human RANTES was measured using a Ca^2+ detector for 96 well use (Hamamatsu Photonics), and inhibition ration (%) of the test compound was calculated by the following calculation formula. Inhibition ratio=(Ec−Ea)/Ec×100 • Ec: measured value of Ca^2+ transient increase by RANTES • Ea: measured value of Ca^2+ transient increase by RANTES when a test compound was added

T1 sequence (P51681 whole entry): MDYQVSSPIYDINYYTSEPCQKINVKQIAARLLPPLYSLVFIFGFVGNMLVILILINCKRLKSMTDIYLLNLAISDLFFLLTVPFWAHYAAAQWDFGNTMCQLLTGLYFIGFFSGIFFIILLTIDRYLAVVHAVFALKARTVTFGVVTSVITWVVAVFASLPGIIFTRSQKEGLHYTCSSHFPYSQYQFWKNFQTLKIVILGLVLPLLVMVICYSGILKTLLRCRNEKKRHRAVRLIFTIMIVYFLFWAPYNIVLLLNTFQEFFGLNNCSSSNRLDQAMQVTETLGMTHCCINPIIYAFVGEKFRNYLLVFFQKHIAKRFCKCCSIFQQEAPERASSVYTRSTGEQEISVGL

SMILES: COc1ccc(CN2CCC(c3ccc(CNC(=O)c4ccc(Cl)cc4)cc3)CC2)cc1OC [Example 1, 4-chloro-N-{4-[1-(3,4-dimethoxybenzyl)piperidin-4-yl]benzyl}benzamide hydrochloride]
- IC50: 4.16 µM
